Data on 2 molecules can be found in patent US6509401B1, “Synergistic flame retardant combination of salts of 1-hydroxy-dihydrophosphole oxides and/or 1-hydroxyphospholane oxides and nitrogen compounds for use in polymers” (Clariant GmbH, priority 1997, dated 2003).

The data set is described as follows: Comparison of water solubilities at 20° C. The format is physicochemical. The protocol:
Comparison of Water Solubilities at 20° C.

`O=P1([O-])CCCC1.O=P1([O-])CCCC1.O=P1([O-])CCCC1.[Al+3]` [PHOLAL, Aluminum salt of 1-hydroxy-1H-phospholane 1-oxide] had a Water solubility of 4300 µg/mL. `CCP(C)(=O)[O-].CCP(C)(=O)[O-].CCP(C)(=O)[O-].[Al+3]` [MEPAL, Aluminum salt of methylethylphosphinic acid] had a Water solubility of 6300 µg/mL.
